Like-named read-outs stand apart in the source and are kept apart here.
Columns and labels:
Alternaria solani = experiment: Mycelial growth test; assay type: cell-based; conditions: Alternaria solani, 72 h, AS, read-out: Percent Fungus Growth Inhibition
Uromyces phaseoli [1] = experiment: whole plant or invertebrate; conditions: foliar, read-out: Percent Disease Control, foliar, bean rust
Fusarium solani [2] = experiment: Mycelial growth test; assay type: cell-based; conditions: Fusarium solani, 72 h, PS, 72 hours, read-out: Percent Fungus Growth Inhibition
Pyricularia oryzae [3] = experiment: whole plant or invertebrate; assay type: in vivo; conditions: Pyricularia oryzae, foliar, 24 h, read-out: Percent Disease Control, curative, rice blast, 150 ppm, 24 hours after inoculation
Pythium ultimum = experiment: Mycelial growth test; assay type: cell-based; conditions: Globisporangium ultimum, 72 h, PU, read-out: Percent Fungus Growth Inhibition
Helminthosporium oryzae = experiment: Mycelial growth test; conditions: Bipolaris oryzae, 72 h
Phytophthora infestans = experiment: whole plant or invertebrate; assay type: in vivo; conditions: Phytophthora infestans, in Solanum lycopersicum, foliar, read-out: Percent Disease Control, foliar, tomato late blight, 150 ppm, protective
Pyricularia oryzae [4] = experiment: microbe, parasite or virus in culture; assay type: cell-based; conditions: Pyricularia oryzae, 72 h
Cercospora beticola = experiment: whole plant or invertebrate; conditions: in Beta vulgaris, foliar, 24 h, read-out: Percent Disease Control, curative, sugar beet leaf spot
Rhizoctonia solani = experiment: Mycelial growth test; assay type: cell-based; conditions: Rhizoctonia solani, 72 h, RS, read-out: Percent Fungus Growth Inhibition
Source text: | RS = Rhizoctonia solani

Sclerotinia fructicola = experiment: Mycelial growth test; assay type: cell-based; conditions: Sclerotinia, 72 h, SF, read-out: Percent Fungus Growth Inhibition
Source text: | SF = Sclerotinia fructicola

Erysiphe polygoni = experiment: whole plant or invertebrate; conditions: foliar, 24 h, read-out: Percent Disease Control, curative, bean powdery mildew
Fusarium solani [5] = experiment: Soil treatment, bean root rot; assay type: in vivo; conditions: Fusarium solani, soil, 336 h; 150 ppm suspension, 3.8 mg active per pot; read-out: Percent Disease Control, seed/soil, bean root rot
Experimental: In a similar manner the soil around a bean seedling was drenched with a sufficient amount of 150 ppm suspension of test chemical to provide 3.8 mg active per pot. Twenty-four hours later the soil was inoculated with a suspension of minced mycelium of Fusarium solani. The inoculated plants were then placed in a greenhouse, evaluated after fourteen days, and percent control of root rot damage calculated. The results, reported in Table III, indicate only a few of the compounds tested are effective in treating Bean Root Rot but that these provide a high degree of control.

Uromyces phaseoli [6] = experiment: whole plant or invertebrate; conditions: foliar, 24 h, read-out: Percent Disease Control, curative, bean rust

O=c1c(Cl)nsnc1Cl [Compound 1, 3,5-dichloro-4H--1,2,6-thiadiazin-4-one]
inhibition at 2.5 ppm (Alternaria solani; 2.5 ppm): 100% | inhibition at 5 ppm (Alternaria solani; 5 ppm): 100% | inhibition at 10 ppm (Alternaria solani; 10 ppm): 100% | pest or weed control at 150 ppm (Uromyces phaseoli [1]): 0% | inhibition at 2.5 ppm (Fusarium solani [2]; 2.5 ppm): 85% | inhibition at 5 ppm (Fusarium solani [2]; 5 ppm): 100% | inhibition at 10 ppm (Fusarium solani [2]; 10 ppm): 100% | pest or weed control at 150 ppm (Pyricularia oryzae [3]): 0% | inhibition at 2.5 ppm (Pythium ultimum; 2.5 ppm): 0% | inhibition at 5 ppm (Pythium ultimum; 5 ppm): 0% | inhibition at 10 ppm (Pythium ultimum; 10 ppm): 100% | inhibition at 2.5 ppm (Helminthosporium oryzae; read-out: Percent Fungus Growth Inhibition, HO, 2.5 ppm, 72 hours): 100% | inhibition at 5 ppm (Helminthosporium oryzae; read-out: Percent Fungus Growth Inhibition, HO, 5 ppm, 72 hours): 100% | inhibition at 10 ppm (Helminthosporium oryzae; read-out: Percent Fungus Growth Inhibition, HO, 10 ppm, 72 hours): 100% | pest or weed control at 150 ppm (Phytophthora infestans): 0% | inhibition at 2.5 ppm (Pyricularia oryzae [4]; read-out: Percent Fungus Growth Inhibition, PO, 2.5 ppm, 72 hours): 27% | inhibition at 5 ppm (Pyricularia oryzae [4]; read-out: Percent Fungus Growth Inhibition, PO, 5 ppm, 72 hours): 42% | inhibition at 10 ppm (Pyricularia oryzae [4]; read-out: Percent Fungus Growth Inhibition, PO, 10 ppm, 72 hours): 82% | pest or weed control at 150 ppm (Cercospora beticola): 0% | inhibition at 2.5 ppm (Rhizoctonia solani; 2.5 ppm): 100% | inhibition at 5 ppm (Rhizoctonia solani; 5 ppm): 64% | inhibition at 10 ppm (Rhizoctonia solani; 10 ppm): 100% | inhibition at 2.5 ppm (Sclerotinia fructicola; 2.5 ppm): 100% | inhibition at 5 ppm (Sclerotinia fructicola; 5 ppm): 100% | inhibition at 10 ppm (Sclerotinia fructicola; 10 ppm): 100% | pest or weed control at 150 ppm (Erysiphe polygoni): 0% | pest or weed control at 150 ppm, 3.8 mg/pot (Fusarium solani [5]): 0% | pest or weed control at 150 ppm (Uromyces phaseoli [6]): 0%

Reference: patent publication US4450269A, “Mono-5-substituted-3-chloro-4H-1,2,6-thiadiazin-4-one antifungal agents” (FMC Corporation, priority 1980, dated 1984)
